The series concerns the target ATP-dependent translocase ABCB1 (Mus musculus, UniProt P21447). Put plainly: TP_TRANSPORTER: increase in blood-brain coefficient in mdr1a(-/-) mouse. Type of series: functional, organism-based. The settings on record: in vivo.

ATP-dependent translocase ABCB1, sequence (P21447 whole entry): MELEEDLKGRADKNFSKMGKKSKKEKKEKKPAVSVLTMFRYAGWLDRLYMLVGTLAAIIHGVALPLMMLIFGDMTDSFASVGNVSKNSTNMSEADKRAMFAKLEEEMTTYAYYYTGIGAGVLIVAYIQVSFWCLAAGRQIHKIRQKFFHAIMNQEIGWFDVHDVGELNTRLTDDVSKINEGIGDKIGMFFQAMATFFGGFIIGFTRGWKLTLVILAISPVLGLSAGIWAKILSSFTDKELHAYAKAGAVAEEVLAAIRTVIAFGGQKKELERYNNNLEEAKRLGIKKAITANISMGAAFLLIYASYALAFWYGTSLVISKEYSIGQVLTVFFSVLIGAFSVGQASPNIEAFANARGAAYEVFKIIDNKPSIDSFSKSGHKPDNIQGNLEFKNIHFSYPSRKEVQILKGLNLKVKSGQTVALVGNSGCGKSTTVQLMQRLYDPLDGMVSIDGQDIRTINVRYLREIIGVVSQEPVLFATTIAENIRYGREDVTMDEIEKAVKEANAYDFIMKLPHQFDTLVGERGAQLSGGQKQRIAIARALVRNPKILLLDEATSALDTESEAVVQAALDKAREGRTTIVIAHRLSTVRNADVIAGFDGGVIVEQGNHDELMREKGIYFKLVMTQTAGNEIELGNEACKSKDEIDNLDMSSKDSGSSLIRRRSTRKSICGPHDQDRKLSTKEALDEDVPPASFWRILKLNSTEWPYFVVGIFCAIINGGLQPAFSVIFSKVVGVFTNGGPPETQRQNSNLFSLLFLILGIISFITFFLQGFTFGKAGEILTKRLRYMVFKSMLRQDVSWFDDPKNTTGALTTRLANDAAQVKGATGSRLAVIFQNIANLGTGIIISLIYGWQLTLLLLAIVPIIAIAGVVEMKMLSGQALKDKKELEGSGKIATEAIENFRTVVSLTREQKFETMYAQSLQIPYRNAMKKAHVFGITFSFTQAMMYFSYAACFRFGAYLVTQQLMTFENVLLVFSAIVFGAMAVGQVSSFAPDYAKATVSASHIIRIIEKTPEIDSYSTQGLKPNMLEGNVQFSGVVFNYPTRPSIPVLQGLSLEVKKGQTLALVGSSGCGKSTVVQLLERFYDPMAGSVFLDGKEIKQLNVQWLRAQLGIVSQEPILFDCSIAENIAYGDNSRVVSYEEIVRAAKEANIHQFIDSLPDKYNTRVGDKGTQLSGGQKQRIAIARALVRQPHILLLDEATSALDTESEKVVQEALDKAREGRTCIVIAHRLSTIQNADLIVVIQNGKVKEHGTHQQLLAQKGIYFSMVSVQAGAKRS

As to `COc1cccc2c1C(=O)c1c(O)c3c(c(O)c1C2=O)C[C@@](O)(C(=O)CO)C[C@@H]3O[C@H]1C[C@H](N)[C@H](O)[C@H](C)O1` [DOXORUBICIN], the Activity entry is “substrate [+]”.
